According to patent publication US20190216886A1, “Topical Compositions And Methods For Treating Wounds” (priority 2014, published 2019):

Tests used:
[1] = system: MRSA; assay: in vitro zone inhibition (disk diffusion) study; format: cell-based, methicillin resistant staphylococcus aureus; settings: for Mean inhibition diameter: MRSA (10 strains, n = 30), 6 mm paper disks on Mueller Hinton Agar; for zone of inhibition, visual result: MRSA strain number 11, FIG. 7; for antimicrobial activity, in words: MRSA, zone inhibition
Method: (§1) In vitro culture and sensitivity studies were performed on common microbes seen in acute and stubborn chronic wound cases. The particular microbes tested included streptococcus pyogenes, staphylococcus aureus, methicillin resistant staphylococcus aureus (MRSA) and, a fungus, candida albicans. Ten different strains of MRSA bacteria obtained from infected hospital patients were tested.
(§2) The different microbes were inoculated on Mueller Hinton Agar media in culture plates. […] However, genetically mutated resistant strains of staphylococcus have evolved and are now the cause of numerous infections because of their resistant nature to most antibiotics.

[2] = system: C. albicans; assay: in vitro zone inhibition (disk diffusion) study; format: cell-based, Candida albicans; settings: for Mean inhibition diameter: C. albicans (n = 6), 6 mm paper disks on Mueller Hinton Agar; for antimicrobial activity, in words: C. albicans (fungi), zone inhibition
Method: as §1, §2

[3] = system: S. pyogenes; assay: in vitro zone inhibition (disk diffusion) study; format: cell-based, Streptococcus pyogenes; settings: for Mean inhibition diameter: S. pyogenes (n = 6), 6 mm paper disks on Mueller Hinton Agar; for antimicrobial activity, in words: S. pyogenes, zone inhibition
Method: as §1, §2

[4] = system: S. aureus; assay: in vitro zone inhibition (disk diffusion) study; format: cell-based, Staphylococcus aureus; settings: for Mean inhibition diameter: S. aureus (n = 6), 6 mm paper disks on Mueller Hinton Agar; for antimicrobial activity, in words: non-resistant S. aureus, zone inhibition
Method: as §1, §2

[5] = system: tinea pedis infection; assay: treatment of a patient with chronic tinea pedis; format: in vivo, human; settings: person, oral, after a month's treatment
Method: Twenty patients with a variety of chronic wound conditions that included diabetic foot ulcers, decubitus pressure ulcers, surgical wounds, toe fungus were treated for eight weeks by wound care physicians with a compounded topical pharmaceutical composition made from compendial ingredients.
Specifically, the test pharmaceutical composition for these studies was prepared by compounding: 25 parts 1% silver sulfadiazine cream: 25 parts 20% zinc oxide ointment; 15 parts triple antibiotic ointment; 25 parts 2% lidocaine viscous; 5 parts Vitamin E Oil (as 200 IU/gm final); and 5 parts Coenzyme Q10 (as 15 mg/gm final).
A case of tinea pedis was also reported in one of the patients. A person who had been suffering from chronic tinea pedis infection (athlete's foot) for over 10 months had tried numerous over-the-counter remedies with no success. They were prescribed the oral antibiotic terbinafine. […] The terbinafine was discontinued and the patient was placed on the test pharmaceutical formulation of the invention on Apr. 14, 2014. They returned for a follow-up with their physician about one week later on Apr. 22, 2014. […] The patient returned for a second follow up on Apr. 29, 2014 (FIG. 5B). The physician's report about 2 weeks after beginning treatment states: “Patient reports foot no longer itchy. Skin healing. […] Foot dry, healthy new tissue visualized”. […]

SMILES	Mean inhibition diameter [1]	zone of inhibition, visual result [1]	Mean inhibition diameter [2]	Mean inhibition diameter [3]	antimicrobial activity, in words [3]	Mean inhibition diameter [4]	antimicrobial activity, in words [4]	antimicrobial activity, in words [1]	antimicrobial activity, in words [2]	tinea pedis infection outcome [5]
Cc1onc(-c2ccccc2)c1C(=O)N[C@@H]1C(=O)N2[C@@H]1SC(C)(C)[C@@H]2C(=O)O [Oxacillin, oxacillin]	0.0 mm	lack of any zone inhibition	0.0 mm	30.2 mm	showed antimicrobial activity	20.3 mm	showed antimicrobial activity	–	–	–
CN[C@H](CC(C)C)C(=O)N[C@H]1C(=O)N[C@@H](CC(N)=O)C(=O)N[C@H]2C(=O)N[C@H]3C(=O)N[C@H](C(=O)N[C@H](C(=O)O)c4cc(O)cc(O)c4-c4cc3ccc4O)[C@H](O)c3ccc(c(Cl)c3)Oc3cc2cc(c3O[C@@H]2O[C@H](CO)[C@@H](O)[C@H](O)[C@H]2O[C@H]2C[C@](C)(N)[C@H](O)[C@H](C)O2)Oc2ccc(cc2Cl)[C@H]1O [Vancomycin, vancomycin]	18.9 mm	clear circular area of inhibition zone	0.0 mm	22.2 mm	potent activity	17.3 mm	potent activity	potent activity	not effective	–
COc1cccc(OC)c1C(=O)N[C@@H]1C(=O)N2[C@@H]1SC(C)(C)[C@@H]2C(=O)O [methicillin]	–	–	–	–	–	–	–	no activity	no activity	–
CN(C/C=C/C#CC(C)(C)C)Cc1cccc2ccccc12 [terbinafine]	–	–	–	–	–	–	–	–	–	no sign of reduction in the infection
